This is an account of results in patent US12492169B2, “Aminopyridine compound and application thereof” (priority 2020, dated 2025).

In brackets after ≈: the same amount, converted by molar mass.

In general, MIC refers to the least concentration at which growth counts as inhibited. One may read the Tmax as the time at which the peak concentration occurs.

For series [1], the system named is Candida albicans ATCC MYA-2876. Briefly: Mouse candidemia efficacy model. The series is classed as in vivo. Particulars: female CD-1 mice infected with Candida albicans ATCC MYA-2876; 26 mg/kg intraperitoneally once a day for 7 days after 50 mg/kg ABT orally; n=5. How it is done: Experimental animals: female CD-1 mice, 7 weeks old, 27 to 29 g, n=5 or 8;
microbial pathogen: Candida albicans ATCC MYA-2876;
inoculation level and route: 2.0 to 4.0E+05 CFU/mouse, infected by tail vein injection;
treatment: The treatment started at 1 hour after infection. Firstly, ABT was administered orally, and 2 hours later, the test compound was injected intraperitoneally once a day for 7 days in total, with an administration volume of 10 mL/kg.
Observation indicators: Changes in body weight and mortality within 7 days after infection in each group of mice.

Series [2] concerns Candida albicans WX-CA009. Briefly: Minimum inhibitory concentration (MIC) test against fungi. The series is classed as cell-based. The settings on record: Candida albicans, WXCA009, 24 h, ≥50% growth inhibition by eye, three independent experiments, read-out: MIC. As for the experimental part: (§1) To test the minimum inhibitory concentration (MIC) and minimum effective concentration (MEC) of the drug against fungi.
(§2) Experimental strains: Candida parapsilosis ATCC 22019; Candida albicans ATCC MYA-2876; Candida albicans WX-CA009; Candida glabrata ATCC15126; Candida tropicalis ATCC 750;
(§3) Test medium: RPMI1640 (containing 0.165 M MOPS, pH7.0)
(§4) On the day of the experiment, the compound in the bottle was dissolved in 100% DMSO to a stock solution concentration of 6.24 mg/mL. Then, the mixture was 10-fold diluted with DMSO to 0.624 mg/mL for use.
(§5) A 2-fold gradient dilution of the compound solution (0.624 mg/mL) was performed using DMSO on a 96-microwell plate (V-bottom) to obtain 100× working solutions (wells 1 to 11). 624, 312, 156, 78, 39, 20, 10, 5, 2.5, 1.25, 0.625 μg/mL. 100% DMSO was used as a positive control (well 12). This was the compound stock plate.
(§6) Candida parapsilosis ATCC 22019 and Candida albicans ATCC MYA-2876; Candida albicans WX-CA009; Candida glabrata ATCC15126; Candida tropicalis ATCC 750 frozen at −80° C. were streaked on SDA plates and incubated aerobically in a 35±2° C. incubator for 24 hours.
(§7) On the day of the experiment, for strains Candida parapsilosis ATCC 22019, Candida albicans ATCC MYA-2876; Candida albicans WX-CA009; Candida glabrata ATCC15126; Candida tropicalis ATCC 750 and Cryptococcus neoformans H99 ATCC 208821, the plates were taken out and the clones on the plates were picked, suspended in normal saline, and then the turbidity of the fungal suspension was adjusted to OD600=0.2 using a turbidimeter. The fungal suspension contained about 3.0×10^6 CFU/mL. Then the turbidity-adjusted fungal suspension was diluted with a test medium to a concentration of about 3.0×10^3 CFU/mL. This was the inoculum.
(§8) 2 μL of 100× working solution from the compound stock plate (prepared in 3.1) was transferred to a round-bottomed 96-well plate (containing 98 μL of test medium), and then 100 μL of fungus inoculum (prepared in 3.2) was added to each well to obtain a MIC test plate. Therefore, the final test concentrations of the compounds were 6.24, 3.12, 1.56, 0.78, 0.39, 0.20, 0.10, 0.05, 0.025, 0.0125, 0.006 μg/mL. 1% DMSO was used as a growth control.
(§9) For strains Candida parapsilosis ATCC 22019; Candida albicans ATCC MYA-2876; Candida albicans WX-CA009; Candida glabrata ATCC15126; Candida tropicalis ATCC 750, all test plates were incubated aerobically in a 35±2° C. incubator for 24 hours.
(§10) After incubation, according to the criteria in Table 1 below, the test plate was observed by eye or microscope to determine the MIC (g/mL) and MEC (g/mL) of the test compound against yeast and mold.

Series [3] concerns Candida albicans ATCC MYA-2876. The series is described as above. The series is classed as cell-based. Particulars: Candida albicans, 24 h, ≥50% growth inhibition by eye, three independent experiments, read-out: MIC. How it is done:
as §1, §2, §3, §4, §5, §6, §7, §8, §9, §10

In series [4] the test system is Candida glabrata ATCC15126. The description is as above. The series is classed as cell-based. Particulars: Nakaseomyces glabratus, ATCC15126, 24 h, ≥50% growth inhibition by eye, three independent experiments, read-out: MIC. How it is done: as §1, §2, §3, §4, §5, §6, §7, §8, §9, §10
In series [5] the test system is Candida parapsilosis ATCC 22019. The description is as above. The series is classed as cell-based. The settings on record: Lodderomyces parapsilosis, ATCC22019, 24 h, ≥50% growth inhibition by eye, three independent experiments (1st, 2nd, 3rd time), read-out: MIC. As for the experimental part:
as §1, §2, §3, §4, §5, §6, §7, §8, §9, §10

Series [6] deals with Candida tropicalis ATCC 750. The description is as above. Type of series: cell-based. Particulars: Candida tropicalis, ATCC750, 24 h, ≥50% growth inhibition by eye, three independent experiments, read-out: MIC. How it is done:
as §1, §2, §3, §4, §5, §6, §7, §8, §9, §10

Series [7] relates to Aspergillus fumigatus ATCC-MYA-4609. Briefly: Minimum effective concentration (MEC) test against fungi. Type of series: cell-based. Particulars: change of hyphae morphology by microscope, 48 hours, three independent experiments. As for the experimental part:
as §1
(§11) Aspergillus fumigatus ATCC-MYA-4609; Aspergillus flavus ATCC MYA-1004
as §3, §4, §5
(§12) Aspergillus fumigatus ATCC-MYA-4609; Aspergillus flavus ATCC MYA-1004 frozen at −80° C. were streaked on SDA plates and incubated aerobically in a 30±2° C. incubator for 6 days.
(§13) For strains Aspergillus fumigatus ATCC MYA-4609; Aspergillus flavus ATCC MYA-1004, after taking out the plate, 3 mL of 0.9% normal saline containing 0.1% Tween20 was added to the plate and the spores were gently collected. The spores were counted with a hemocytometer and the spore suspension was adjusted to about 5×10^6 spores/mL. Then the spore suspension was diluted to 0.8 to 1×10^5 spores/mL with a test medium.
as §8
(§14) For mold strains Aspergillus fumigatus ATCC-MYA-4609 and Aspergillus flavus ATCC MYA-1004, all test plates were incubated aerobically in a 35±° C. incubator for 48 hours.
as §10

In series [8] the test system is Aspergillus flavus ATCC MYA-1004. Described as above. The series is classed as cell-based. The settings on record: change of hyphae morphology by microscope, 48 hours, three independent experiments. How it is done: as §1, §11, §3, §4, §5, §12, §13, §8, §14, §10
The subject of series [9] is Cryptococcus neoformans H99 ATCC 208821. In words: Minimum inhibitory concentration (MIC) test against fungi. The series is classed as cell-based. The settings on record: Cryptococcus neoformans, ATCC208821, 72 h, ≥50% growth inhibition by eye, three independent experiments, read-out: MIC. How it is done: as §1
Cryptococcus neoformans H99 ATCC 208821;
as §3, §4, §5
Cryptococcus neoformans H99 ATCC 208821 frozen at −80° C. was streaked on SDA plates and incubated aerobically in a 35±2° C. incubator for 48 hours.
as §7, §8
For Cryptococcus neoformans H99 ATCC 208821, all test plates were incubated aerobically in a 35±2° C. incubator for 72 hours.
as §10

Series [10] can be described thus: Mouse pharmacokinetic evaluation, intraperitoneal injection after oral ABT. The series is classed as in vivo. Particulars: ip, female CD-1 mice, 6 mpk, ABT 50 mg/kg orally 2 hours before, plasma. The source says:
Experimental Purpose: Using female CD-1 mice as test animals, LC/MS/MS was used to measure the plasma drug concentration at different times after intraperitoneal injection of the test compound. To study the pharmacokinetic behavior of the test compound in mice and evaluate its pharmacokinetic characteristics. Drug preparation: An appropriate amount of sample was weighed and then prepared into a clear or suspended solution. Administration scheme: Two healthy female CD-1 mice were taken, purchased from Beijing Vital River Laboratory Animal Technology Co., Ltd., and given a normal diet. The drug was administered through intraperitoneal injection. Operational steps: 2 hours before administration, 1-aminobenzotriazole (ABT) was orally administered (50 mg/kg, 5 mg/mL in normal saline), and after animal administration, about 30 μL of blood was collected at 0.083, 0.25, 0.5, 1, 2, 4, 8, and 24 hours, and placed in commercially available anticoagulant tubes pre-added with EDTA-K2. The tubes were centrifuged for 10 minutes to separate the plasma, and the plasma was stored at −60° C. The content of the target compound in the plasma sample was determined by LC/MS/MS method, and the experimental results are shown in Table 3.

Take `Nc1ccc(C#CCc2ccc(Oc3cccc(F)n3)cc2)cn1` [WX009]: the “protection from death caused by candidemia” value in series [1] is given as “completely protect”. Further, the MIC was determined as 0.05 µg/mL (≈ 0.157 µM) in series [2]; 0.05 µg/mL (≈ 0.157 µM) in series [3]; 0.78 µg/mL (≈ 2.44 µM) in series [4]; 0.05 µg/mL (≈ 0.157 µM) in series [5]; 0.1 µg/mL (≈ 0.313 µM) in [6]; 0.025 µg/mL (≈ 0.0783 µM) in [9]. Besides, the MEC in series [7] and in series [8] was 0.39 µg/mL each time. For the same compound, the AUC in series [10] (read-out: Concentration Integral AUC) is 67 µM·h. In addition, the Cmax in series [10] (read-out: Peak Concentration Cmax) turned out to be 11.4 µM. In addition, in series [10] (read-out: Peak Time Tmax), the Tmax worked out at 45 min.
